Measurements reported in patent US4307104A, “Guanidine compounds” (Smith Kline & French Laboratories Limited, priority 1979, dated 1981).

Tested on: histamine H2 -receptors
Assay: inhibition of histamine-stimulated secretion of gastric acid from the lumen-perfused stomachs of rats anaesthetised with urethane
Assay type: in vivo
Settings: i.v., lumen-perfused stomach of urethane-anaesthetised rats

Compound: N=C(N)Nc1nc(CSCCNC2=C([N+](=O)[O-])CCCN2)cs1 [Example 1, 2-[2-(2-Guanidino-4-thiazolylmethylthio)ethylamino-]-3-nitro-1,4,5,6-tetrahydropyridine]
- dose causing 50% inhibition of maximal acid secretion: less than 0.1 micromole kh^-1
